The test relates to recombinant HIV-1 with V75L alone or in combination with L214F or M164I. The test can be described thus: p24 reduction assay in MT-2 cells, V75L recombinants. As to conditions: Example 6. The format is cell-based. Here is the method: Antiviral Susceptibility Assays. The antiviral activity of each compound was determined by inoculating MT-2 cells with HIV-1LAI at a multiplicity of infection (MOI) of 0.01 TCID50/cell, followed by incubation in the presence of three-fold serial drug dilutions (3 wells per dilution) (see Mellors, et. al., Antimicrob. Agents Chemother. 39:1087-1092). Five or seven days after infection, culture supernatants were harvested, lysed with 0.5% triton-X 100 and assayed for p24 antigen concentration using a commercial ELISA assay (DuPont, NEN Products, Wilmington, Del.). The antiviral activity of the compounds is expressed as the IC50, which is the concentration required to inhibit 50% of p24 antigen production. The fold-resistance of a test virus is calculated by dividing the IC50 of the test virus by the IC50 of the HIV-1LAI control virus.
Generation of Mutant Recombinant HIV-1. HIV-1 containing the desired mutations were generated by oligonucleotide directed mutagenesis (Altered Sites II, Promega) as previously described (Mellors, et. al., Molecular Pharm. 41:446-451). After mutagenesis, mutant RT was subcloned into the pxxHIV-1LAI cloning vector using the silent XmaI and XbaI restriction sites located at the 5′ and 3′ ends of RT. […]

This passage reports Fold resistance results from patent US20030207843A1, “Treatment of drug-resistant human immunodeficiency virus infection” (priority 1999, published 2003).

The structures appear in SMILES notation.

Regarding `CCCCCCCCCCCCCCCCCCOC[C@H](COP(=O)(O)C(=O)O)OC` [MB-PFA, 1-O-octadecyl-2-O-methyl-sn-glycero-3-PFA], the Fold resistance is less than 3 fold.
